Target: T1, G-Flamp1 (cpGFP inserted into mlCNBD of the MlotiK1 channel) (Mesorhizobium japonicum, UniProt Q98GN8, P285N/S308V)
T1 construct: gene mll3241; GFP D173G plus Citrine/sfGFP mutations) inserted between residues 285 and 286; N-terminal RSET 6xHis tag kept for Kd; tag-free (SUMO cut) for crystal; E. coli; monomer
T1 sequence (Q98GN8 213-355 P285N/S308V): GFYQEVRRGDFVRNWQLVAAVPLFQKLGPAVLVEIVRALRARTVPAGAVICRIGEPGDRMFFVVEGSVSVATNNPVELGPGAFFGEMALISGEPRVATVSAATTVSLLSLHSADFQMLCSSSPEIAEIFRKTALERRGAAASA
Experiment: fluorescence titration of purified sensor (ex […] nm), sigmoidal fit
Type: binding

Kd: 30.1 µM
Compound: Nc1nc2c(ncn2[C@@H]2O[C@@H]3COP(=O)(O)O[C@H]3[C@H]2O)c(=O)[nH]1 [cGMP]

Source: publication PMC9468011 (Nature Communications, 2022)
